Test results taken from PubChem BioAssay AID2060505 (Molecular Pharmacology Branch, DTP, NCI, 2025).
pIC50: −log10 of the molar value.

Test system: 633275-114-R-J1-PDC complex spheroids, viability
Assay: Anticancer human tumor 633275-114-R-J1-PDC patient-derived endometrial adenocarcinoma cell line growth inhibition [GQUAD]
Settings: for pIC50: curve of first compound; for viability, T/C: stronger effect = lower value; active = viability on the fitted dose curve at most 10% of control; inactive = the rest
Summary of the method: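 Viability of tumor cells grown as complex spheroids with endothelial and stromal cells, exposed to drug combinations. Top concentration at or near clinical Cmax (else 10 microM), diluted in half-log increments.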

[1] = second compound 0.0316 µM, first compound 0.0316 µM
[2] = second compound 0.0316 µM, first compound 0.1 µM
[3] = second compound 0.0316 µM, first compound 0.316 µM
[4] = second compound 0.0316 µM, first compound 1 µM
[5] = second compound 0.0316 µM, first compound 3.16 µM
[6] = second compound 0.0316 µM, first compound 10 µM
[7] = second compound 0.1 µM, first compound 0.0316 µM
[8] = second compound 0.1 µM, first compound 0.1 µM
[9] = second compound 0.1 µM, first compound 0.316 µM
[10] = second compound 0.1 µM, first compound 1 µM
[11] = second compound 0.1 µM, first compound 3.16 µM
[12] = second compound 0.1 µM, first compound 10 µM
[13] = second compound 0.316 µM, first compound 0.0316 µM
[14] = second compound 0.316 µM, first compound 0.1 µM
[15] = second compound 0.316 µM, first compound 0.316 µM
[16] = second compound 0.316 µM, first compound 1 µM
[17] = second compound 0.316 µM, first compound 3.16 µM
[18] = second compound 0.316 µM, first compound 10 µM
[19] = second compound 1 µM, first compound 0.0316 µM
[20] = second compound 1 µM, first compound 0.1 µM
[21] = second compound 1 µM, first compound 0.316 µM
[22] = second compound 1 µM, first compound 1 µM
[23] = second compound 1 µM, first compound 3.16 µM
[24] = second compound 1 µM, first compound 10 µM
[25] = second compound 3.16 µM, first compound 0.0316 µM
[26] = second compound 3.16 µM, first compound 0.1 µM
[27] = second compound 3.16 µM, first compound 0.316 µM
[28] = second compound 3.16 µM, first compound 1 µM
[29] = second compound 3.16 µM, first compound 3.16 µM
[30] = second compound 3.16 µM, first compound 10 µM
[31] = second compound 10 µM, first compound 0.0316 µM
[32] = second compound 10 µM, first compound 0.1 µM
[33] = second compound 10 µM, first compound 0.316 µM
[34] = second compound 10 µM, first compound 1 µM
[35] = second compound 10 µM, first compound 3.16 µM
[36] = second compound 10 µM, first compound 10 µM
[37] = second compound 0.0316 µM, first compound 0.000999 µM
[38] = second compound 0.0316 µM, first compound 0.00316 µM
[39] = second compound 0.0316 µM, first compound 0.00999 µM
[40] = second compound 0.0316 µM, first compound 0.0999 µM
[41] = second compound 0.1 µM, first compound 0.000999 µM
[42] = second compound 0.1 µM, first compound 0.00316 µM
[43] = second compound 0.1 µM, first compound 0.00999 µM
[44] = second compound 0.1 µM, first compound 0.0999 µM
[45] = second compound 0.316 µM, first compound 0.000999 µM
[46] = second compound 0.316 µM, first compound 0.00316 µM
[47] = second compound 0.316 µM, first compound 0.00999 µM
[48] = second compound 0.316 µM, first compound 0.0999 µM
[49] = second compound 1 µM, first compound 0.000999 µM
[50] = second compound 1 µM, first compound 0.00316 µM
[51] = second compound 1 µM, first compound 0.00999 µM
[52] = second compound 1 µM, first compound 0.0999 µM
[53] = second compound 3.16 µM, first compound 0.000999 µM
[54] = second compound 3.16 µM, first compound 0.00316 µM
[55] = second compound 3.16 µM, first compound 0.00999 µM
[56] = second compound 3.16 µM, first compound 0.0999 µM
[57] = second compound 10 µM, first compound 0.000999 µM
[58] = second compound 10 µM, first compound 0.00316 µM
[59] = second compound 10 µM, first compound 0.00999 µM
[60] = second compound 10 µM, first compound 0.0999 µM
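Note: spheroids exposed to the agents for seven days.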
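Throughout, for viability, T/C: percent of DMSO vehicle control viability which is 100%.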

COc1ncnc(C2CC2)c1-c1ncc2cnn(Cc3ccc(-c4nc(C(F)(F)F)cn4C(C)C)cc3)c2n1 + Cc1cnc(CNC(=O)c2c(=O)c3ccc(N4CCCN(C)CC4)nc3n3c2sc2ccccc23)cn1
< 5.00: pIC50 (second compound 0.0316 µM)
> 7.50: pIC50 (second compound 0.1 µM) | pIC50 (second compound 0.316 µM) | pIC50 (second compound 1 µM) | pIC50 (second compound 3.16 µM) | pIC50 (second compound 10 µM)
inactive: viability, T/C [1] 53.1% | viability, T/C [2] 54.6% | viability, T/C [3] 59.3% | viability, T/C [4] 56% | viability, T/C [5] 56.5% | viability, T/C [6] 58.2% | viability, T/C [7] 45.3% | viability, T/C [8] 45.5% | viability, T/C [9] 45.9% | viability, T/C [10] 48.5% | viability, T/C [11] 49% | viability, T/C [12] 50% | viability, T/C [13] 42.7% | viability, T/C [14] 43.9% | viability, T/C [15] 42.1% | viability, T/C [16] 38.8% | viability, T/C [17] 48.7% | viability, T/C [18] 42.5% | viability, T/C [19] 39.9% | viability, T/C [20] 39.7% | viability, T/C [21] 37.1% | viability, T/C [22] 36.9% | viability, T/C [23] 40.5% | viability, T/C [24] 38.7% | viability, T/C [25] 32% | viability, T/C [26] 32.1% | viability, T/C [27] 35.5% | viability, T/C [28] 33.4% | viability, T/C [29] 36.6% | viability, T/C [30] 34.1% | viability, T/C [31] 29.2% | viability, T/C [32] 28.8% | viability, T/C [33] 30.5% | viability, T/C [34] 27.5% | viability, T/C [35] 31.9% | viability, T/C [36] 29.3%

CC1COCCN1c1cc(C2(O)CC3CCC(C2)O3)c2cnn(-c3ccn[nH]3)c2n1 (stereo not drawn) + Cc1[nH]c2ccc(F)cc2c1-c1nc2c3cccnc3c3ncccc3c2[nH]1
7.04: pIC50 (second compound 0.316 µM)
7.32: pIC50 (second compound 3.16 µM)
7.42: pIC50 (second compound 10 µM)
7.00: pIC50 (second compound 0.0316 µM) | pIC50 (second compound 0.1 µM)
7.08: pIC50 (second compound 1 µM)
inactive: viability, T/C [1] 80.1% | viability, T/C [2] 49.7% | viability, T/C [3] 31.2% | viability, T/C [4] 20.5% | viability, T/C [5] 14.6% | viability, T/C [6] 9.97% | viability, T/C [7] 76.6% | viability, T/C [8] 50.4% | viability, T/C [9] 30% | viability, T/C [10] 20.7% | viability, T/C [11] 15.8% | viability, T/C [12] 10.3% | viability, T/C [13] 75.3% | viability, T/C [14] 46.9% | viability, T/C [15] 30.2% | viability, T/C [16] 21.3% | viability, T/C [17] 15.4% | viability, T/C [18] 9.62% | viability, T/C [19] 70.6% | viability, T/C [20] 46.3% | viability, T/C [21] 28.8% | viability, T/C [22] 20.4% | viability, T/C [23] 14.9% | viability, T/C [24] 9.89% | viability, T/C [25] 56.5% | viability, T/C [26] 37.9% | viability, T/C [27] 26.5% | viability, T/C [28] 19.4% | viability, T/C [29] 14.7% | viability, T/C [30] 9.57% | viability, T/C [31] 52.4% | viability, T/C [32] 38% | viability, T/C [33] 25.7% | viability, T/C [34] 18.2% | viability, T/C [35] 15.1% | viability, T/C [36] 9.9%

Cn1ncnc1[C@H]1c2n[nH]c(=O)c3cc(F)cc(c23)N[C@@H]1c1ccc(F)cc1 + CN(C)c1ccc(Nc2c3ccc(NC(=O)CCN4CCCC4)cc3nc3cc(NC(=O)CCN4CCCC4)ccc23)cc1
> 9.00: pIC50 (second compound 10 µM)
inactive: viability, T/C [37] 103% | viability, T/C [38] 95.6% | viability, T/C [39] 82% | viability, T/C [1] 76.8% | viability, T/C [40] 65.4% | viability, T/C [3] 55.5% | viability, T/C [41] 97.6% | viability, T/C [42] 101% | viability, T/C [43] 98% | viability, T/C [7] 74.8% | viability, T/C [44] 70.6% | viability, T/C [9] 63.1% | viability, T/C [45] 95.2% | viability, T/C [46] 102% | viability, T/C [47] 86.5% | viability, T/C [13] 86.4% | viability, T/C [48] 71.2% | viability, T/C [15] 52.9% | viability, T/C [49] 102% | viability, T/C [50] 96.2% | viability, T/C [51] 91.9% | viability, T/C [19] 77.1% | viability, T/C [52] 63.6% | viability, T/C [21] 54.4% | viability, T/C [53] 84.9% | viability, T/C [54] 91.2% | viability, T/C [55] 79.7% | viability, T/C [25] 70% | viability, T/C [56] 59.3% | viability, T/C [27] 49.6% | viability, T/C [57] 31.5% | viability, T/C [58] 35.2% | viability, T/C [59] 35.4% | viability, T/C [31] 29.7% | viability, T/C [60] 26.3% | viability, T/C [33] 22%
< 6.50: pIC50 (second compound 0.0316 µM) | pIC50 (second compound 0.1 µM) | pIC50 (second compound 0.316 µM) | pIC50 (second compound 1 µM) | pIC50 (second compound 3.16 µM)

CC[C@@]1(O)C(=O)OCc2c1cc1n(c2=O)Cc2cc3c(CN(C)C)c(O)ccc3nc2-1 + CN(C)c1ccc(Nc2c3ccc(NC(=O)CCN4CCCC4)cc3nc3cc(NC(=O)CCN4CCCC4)ccc23)cc1
7.32: pIC50 (second compound 3.16 µM)
inactive: viability, T/C [37] 96.1% | viability, T/C [38] 105% | viability, T/C [39] 98.3% | viability, T/C [1] 75.2% | viability, T/C [40] 39.7% | viability, T/C [3] 35.9% | viability, T/C [41] 93.4% | viability, T/C [42] 101% | viability, T/C [43] 99% | viability, T/C [7] 74.1% | viability, T/C [44] 42% | viability, T/C [9] 36% | viability, T/C [45] 101% | viability, T/C [46] 104% | viability, T/C [47] 85.5% | viability, T/C [13] 72.9% | viability, T/C [48] 42.6% | viability, T/C [15] 36.3% | viability, T/C [49] 98% | viability, T/C [50] 88.6% | viability, T/C [51] 91.2% | viability, T/C [19] 64.8% | viability, T/C [52] 36.7% | viability, T/C [21] 35% | viability, T/C [53] 82.3% | viability, T/C [54] 82% | viability, T/C [55] 80.7% | viability, T/C [25] 54% | viability, T/C [56] 40.6% | viability, T/C [27] 27% | viability, T/C [57] 35.2% | viability, T/C [58] 41.3% | viability, T/C [59] 28.8% | viability, T/C [31] 26.5% | viability, T/C [60] 15.3% | viability, T/C [33] 13.7%
7.15: pIC50 (second compound 0.0316 µM)
7.09: pIC50 (second compound 0.316 µM)
7.24: pIC50 (second compound 1 µM)
7.14: pIC50 (second compound 0.1 µM)
> 9.00: pIC50 (second compound 10 µM)
